# Experimental data reported in US12004506B2, “Pharmaceutical composition comprising a cyclic peptide of formula X1-[sequence]-X2 and use for extracorporeal lung treatment” (priority 2013, dated 2024).
# System: non-ischemic pig donor lung
# Test: Ex vivo lung perfusion (EVLP) of non-ischemic pig donor lungs, inhalative application
# Settings: inhalative application, 1 mg/kg, hourly T1 to T4, vs WFI control
# Method: Brain death pigs were turned into dorsal position, and a longitudinal sternotomy was performed. The pericardium and both pleural cavities were opened. […] An inflow catheter was placed in the pulmonary artery through a purse-string on the right ventricular outflow tract.
# The lungs (non-ischemic) were then preserved with an ante grade flush of cold isotonic preservation solution (50 ml per kg body weigh of pig, containing potassium ions, sodium ions, magnesium ions, calcium ions, chloride ions, dextran, glucose, buffering ions) through the inflow catheter. Incision of the left auricular appendix provides outflow. The lungs were ventilated during this period with 50% oxygen, and iced slush were placed in both pleural cavities and mediastinum.
# The explanation technique was en bloc harvesting with heart and esophagus according to the following steps: • a) Dissection of soft tissue bridges to the thoracic cavity on both sides of the trachea. • b) Transsection of both pulmonal ligaments (very deep, difficult exposure), then of the VCI, the lower thoracic descendent aorta and the esophagus, respectively. • c) Blunt separation from remaining mediastinal adhesions. • d) Complete inflation of the donor lung prior of tracheal closure with a stapler.
# After explantation, the lungs were wrapped in gauze, placed in an insulated ice bag filled with low-potassium dextran extracellular solution, and stored at 4° C. for 18 to 24 hours. A temperature probe was submerged in the container, which will be placed in a refrigerator.
# For ex-vivo lung conditioning, the EVLP technique ([…]) was used. In the EVLP technique, donor lungs are placed into a circuit composed of a pump, ventilator and filters. EVLP technique, the temperature may increased up to 37 °C. In the EVLP, a ventilator is used to deliver oxygen to the lungs. The pump is used to perfuse the lungs with an extracellular solution containing human albumin and nutrition. During EVLP, the lung function can be evaluated regularly on key indicators. […]
compound,measurement,setting,value
C[C@@H]1NC(=O)CNC(=O)[C@H](CCC(=O)O)NC(=O)[C@@H]2CCCN2C(=O)[C@H]([C@@H](C)O)NC(=O)[C@H](CCC(=O)O)NC(=O)[C@H](CCCNC(=N)N)NC(=O)[C@H](CCC(N)=O)NC(=O)CNC(=O)[C@@H](N)CSSC[C@@H](C(=O)O)NC(=O)[C@H](Cc2ccc(O)cc2)NC(=O)[C@H](Cc2c[nH]c3ccccc23)NC(=O)[C@@H]2CCCN2C(=O)[C@H](CCCCN)NC(=O)[C@H](C)NC(=O)[C@H](CCC(=O)O)NC1=O [SEQ ID NO: 1],dynamic lung compliance,FIG. 2A,improved
same,arterio-venous pO2 difference ΔpO2,FIG. 2B,improved
